Results published in patent US5643908A, “Collagenase inhibitor” (Sankyo Company, Limited, priority 1991, dated 1997).
Residues, ends and D or L forms follow the SMILES beside them. *: point of attachment. Cbz = O=C(OCc1ccccc1)*; NHOH = ON*

Columns and labels:
type IV collagenases [1] = molecular target: T1, type IV collagenases (Homo sapiens, UniProt P08253); experiment: Inhibitory activity on type IV collagenases: cleavage of radio-labelled type IV collagen; assay type: biochemical; conditions: type IV collagenases from serum-free culture medium of human melanoma cells; radio-labelled type IV collagen from mouse EHS tumor as substrate
T1 construct: type IV collagenases prepared from a serum-free culture medium of human melanoma cells; endogenous in cells
T1 sequence (P08253 110-660): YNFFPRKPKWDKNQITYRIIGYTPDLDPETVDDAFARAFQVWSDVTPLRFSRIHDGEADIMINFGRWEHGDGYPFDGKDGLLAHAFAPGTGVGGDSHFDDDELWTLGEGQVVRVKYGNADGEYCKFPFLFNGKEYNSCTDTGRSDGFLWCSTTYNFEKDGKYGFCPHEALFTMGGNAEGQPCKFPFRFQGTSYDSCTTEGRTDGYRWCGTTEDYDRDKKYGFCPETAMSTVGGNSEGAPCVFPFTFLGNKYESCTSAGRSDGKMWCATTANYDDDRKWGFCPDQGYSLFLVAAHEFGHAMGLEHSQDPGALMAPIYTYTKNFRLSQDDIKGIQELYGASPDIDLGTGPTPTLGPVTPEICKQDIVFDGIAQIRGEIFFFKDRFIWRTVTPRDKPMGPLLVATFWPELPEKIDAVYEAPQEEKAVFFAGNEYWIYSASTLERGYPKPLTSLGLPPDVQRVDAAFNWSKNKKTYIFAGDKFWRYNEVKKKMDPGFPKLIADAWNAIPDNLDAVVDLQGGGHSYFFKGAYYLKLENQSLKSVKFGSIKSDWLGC
Method: The activity of type IV collagenase was assayed according to the method of Salo et al. [J. Biol. Chem., Vol. 258, 3058-3063 (1983)].
In detail, the activity was assayed by measuring the cleavage of collagen by using type IV collagenases prepared from a serum-free culture medium of human melanoma cells, and type IV collagen prepared from mouse EHS tumor radio-labelled as a substrate.
The inhibitory activity on type IV collagenases was measured by calculating the inhibition percent of the enzyme reaction, in which the test samples were added to the reaction mixture.
The results (expressed as I50) is shown below.

cancer metastasis = conditions: animal experiment; cited from earlier work
type IV collagenases [2] = conditions: cited from earlier work
collagenase = conditions: cited from earlier work
bacteria = conditions: cited from earlier work
aminopeptidase M = conditions: low concentrations; cited from earlier work

SMILES | IC50 (type IV collagenases [1]) [nM] | further results
CCCCC[C@H](CC(=O)NO)C(=O)N1NCCC[C@H]1C(=O)N[C@H](C(=O)OC(C)(C)C)C(C)C [Example 5] | 360 | –
CCCCCCC[C@H](CC(=O)NO)C(=O)N1NCCC[C@H]1C(=O)NC [Example 16, N^2-[2-(R)-(Hydroxyaminocarbonyl)methyl-1-oxononyl]-(S)-piperazic acid N-methylamide] | 42 | –
CNC(=O)[C@H](Cc1ccc(OC)cc1)NC(=O)[C@@H](CC(=O)NO)CC(C)C [SC 44463] | – | inhibitory activity on cancer metastasis (cancer metastasis): confirmed to exhibit an inhibitory activity on cancer metastasis; inhibitor relatively specific to type IV collagenases (type IV collagenases [2]): inhibitor relatively specific to type IV collagenases
CCCCC[C@H](CC(=O)NO)C(=O)N1NCCC[C@@H]1C(=O)N[C@H](C(=O)CC)[C@@H](C)CC [Example 110, N^2-[2-(R)-(Hydroxyaminocarbonyl)methyl-1-oxoheptyl]-(R)-piperazic acid (4S,5S)-methyl-3-oxoheptan-4-ylamide, reference compound] | 18500 | –
CNC(=O)[C@@H]1CCCNN1C(=O)[C@H](CCc1ccccc1)CC(=O)NO [Example 20, N^2-[2-(R)-(Hydroxyaminocarbonyl)methyl-1-oxo-4-phenylbutyl]-(S)-piperazic acid N-methylamide] | 73 | –
CCCCCC(CC(=O)NO)C(=O)N1NCCCC1C(=O)NC(CC(C)C)C(C)=O (stereo not drawn) | – | collagenase inhibiting activity (collagenase): collagenase inhibiting activities; antibacterial activity (bacteria): antibacterial
CC(C)C[C@H](NC(=O)[C@@H]1CCCN1C(=O)OCc1ccccc1)C(=O)NCC(=O)NO [benzyloxycarbonyl propyl-leucyl-glycylhydroxamic acid] (Cbz-Pro-Leu-Gly-{NHOH}) | – | collagenase inhibiting activity (collagenase): showing collagenase inhibiting effects
CCCCCCC[C@H](CC(=O)NO)C(=O)N1NCCC[C@H]1C(=O)N(C)C [Example 17, N^2-[2-(R)-(Hydroxyaminocarbonyl)methyl-1-oxononyl]-(S)-piperazic acid N,N-dimethylamide] | 270 | –
CCCCCCCC[C@H](CC(=O)NO)C(=O)N1NCCC[C@H]1C(=O)N(C)C [Example 33, N^2-[2-(R)-(Hydroxyaminocarbonyl)methyl-1-oxodecyl]-(S)-piperazic acid N,N-dimethylamide] | 64 | –
CN(C)C(=O)[C@@H]1CCCNN1C(=O)[C@H](CCc1ccccc1)CC(=O)NO [Example 21, N^2-[2-(R)-(Hydroxyaminocarbonyl)methyl-1-oxo-4-phenylbutyl]-(S)-piperazic acid N,N-dimethylamide] | 280 | –
CCCCCC[C@H](CC(=O)NO)C(=O)N1NCCC[C@H]1C(=O)NC [Example 14, N^2-[2-(R)-(Hydroxyaminocarbonyl)methyl-1-oxooctyl]-(S)-piperazic acid N-methylamide] | 82 | –
CCCCC[C@H](CC(=O)NO)C(=O)N1NCCC[C@H]1C(=O)N[C@H](C(=O)OC)C(C)C [Example 4, Methyl 2-(S)-[N^2-[2-(R)-(Hydroxyaminocarbonyl)methyl-1-oxoheptyl]-(S)-piperazyl]aminoisovalerate] | 350 | –
CCCCCC(CC(=O)NO)C(=O)N1NCCCC1C(=O)NC(C(=O)CC)C(C)CC (stereo not drawn) | – | antibacterial activity (bacteria): antibacterial activity
CCCCC[C@H](CC(=O)NO)C(=O)N1NCCC[C@H]1C(=O)N[C@H](C(=O)N(C)OC)C(C)C [Example 3, 2-(S)-[N^2-[2-(R)-(Hydroxyaminocarbonyl)methyl-1-oxoheptyl]-(S)-piperazyl]aminoisovaleric acid N-methyl-N-methoxyamide] | 330 | –
CCCCC[C@H](CC(=O)NO)C(=O)N1NCCC[C@H]1C(=O)N[C@H](C(=O)CC)[C@@H](C)CC [Example 108, reference compound] | 1400 | –
CCCCCCCCCC[C@H](CC(=O)NO)C(=O)N1NCCC[C@H]1C(=O)N(C)C [Example 19, N^2-[2-(R)-(Hydroxyaminocarbonyl)methyl-1-oxododecyl]-(S)-piperazic acid N,N-dimethylamide] | 80 | –
CCCCC[C@H](CC(=O)NO)C(=O)N1NCCC[C@H]1C(=O)NCC [Example 27, N^2-[2-(R)-(Hydroxyaminocarbonyl)methyl-1-oxoheptyl]-(S)-piperazic acid N-ethylamide] | 160 | –
CCCCCCCC[C@H](CC(=O)NO)C(=O)N1NCCC[C@H]1C(=O)N(CC)CC [Example 35, N^2-[2-(R)-(Hydroxyaminocarbonyl)methyl-1-oxodecyl]-(S)-piperazic acid N,N-diethylamide] | 200 | –
CCCCC[C@H](CC(=O)NO)C(=O)N1NCCC[C@H]1C(=O)N[C@@H](C(=O)CC)[C@H](C)CC [Example 109, N^2-[2-(R)-(Hydroxyaminocarbonyl)methyl-1-oxoheptyl]-(S)-piperazic acid (4R,5R)-5-methyl-3-oxoheptan-4-ylamide, reference compound] | 4300 | –
CCCCC[C@H](CC(=O)NO)C(=O)N1NCCC[C@H]1C(=O)NCC(C)C [Example 30, N^2-[2-(R)-(Hydroxyaminocarbonyl)methyl-1-oxoheptyl]-(S)-piperazic acid N-isobutylamide] | 240 | –
CC(C)C[C@H](CC(=O)NO)C(=O)N1NCCC[C@H]1C(=O)N(C)C [Example 32, N^2-[2-(R)-(Hydroxyaminocarbonyl)methyl-1-oxo-4-methyl-pentyl]-(S)-piperazic acid N,N-dimethylamide] | 750 | –
CCCCC[C@H](CC(=O)NO)C(=O)N1NCCC[C@H]1C(N)=O [Example 29, N^2-[2-(R)-(Hydroxyaminocarbonyl)methyl-1-oxoheptyl]-(S)-piperazylamide] | 250 | –
CCCCCCCCCC[C@H](CC(=O)NO)C(=O)N1NCCC[C@H]1C(=O)NC [Example 18, N^2-[2-(R)-(Hydroxyaminocarbonyl)methyl-1-oxododecyl]-(S)-piperazic acid N-methylamide] | 27 | –
CCCCC[C@H](CC(=O)NO)C(=O)N[C@H](C(=O)N1CCC[C@H]1CO)C(C)C [actinonin] | – | inhibition of aminopeptidase M (aminopeptidase M): inhibit aminopeptidase M at low concentrations
CCCCCCCC[C@H](CC(=O)NO)C(=O)N1NCCC[C@H]1C(=O)NCC [Example 34, N^2-[2-(R)-(Hydroxyaminocarbonyl)methyl-1-oxodecyl]-(S)-piperazic acid N-ethylamide] | 37 | –
